Read-outs that look alike come from different tables or passages of the source. Blank lines part the entries; values can stand above or below the compound they belong to.
What was measured:
[1] = Stability in simulated gastric fluid (SGF); assay type: in vitro ADME; conditions: SGF pH 1.2, 37° C., 2 μM
Experimental: The stability of compounds 1 to 4, and the control compound omeprazole, were measured in simulated gastric fluid (SGF: 0.2% w/v sodium chloride, 0.7% v/v hydrochloric acid, and 0.32% w/v pepsin in deionized water, pH 1.2±0.05). Stock solutions of the compounds (10 mM) were diluted to 200 μM in DMSO, then duplicate 2 μL aliquots added to 96-well plates for time points 0, 1, 2, 6, and 24 hours. SGF (198 μL) was added to all wells except those for time 0, to give a starting compound concentration of 2 μM; and the samples were incubated at 37° C. with agitation at 600 rpm for the prescribed times. After incubation, 200 μL of each sample was extracted and mixed with 400 μL cold ACN containing 200 ng/mL tolbutamide and labetalol as internal standards. The samples were centrifuged at […] for 20 minutes at 4° C., and the supernatants (60 μL) each diluted with purified water (180 μL) for LC/MS/MS analysis. The percentage of the test compound remaining at each time point was calculated based on the ratio of the peak area of the analyte to the internal standards.

[2] = tested on: wild-type mice fed a high fat diet; assay: Genistein in wild-type mice fed a high fat diet; assay type: in vivo, mouse; conditions: high fat diet 12 weeks, then intraperitoneal 200 mg/Kg genistein in corn oil for 14 days
[3] = Pharmacokinetics in the rat, solid form (powder in mini-capsules); assay type: in vivo
[4] = Pharmacokinetics in the rat, dosing in solution; conditions: in vivo
[5] = tested on: mdx mice; conditions: Messina et al., cited from earlier work
[6] = Thermodynamic solubility in FaSSIF; assay type: physicochemical; conditions: thermodynamic from solid, room temperature, 24 hours shaking
Experimental: After shaking, the samples were centrifuged at 25° C. for 20 minutes at 4000 rpm. Filtrates were prepared using the Whatman Mini-UniPrep Syringeless Filter Device (PTFE filter media with polypropylene housing, pore size 0.45 μm) from Cytiva, and dilutions were performed as required. Quantification of all samples was carried out using an LC-UV system.

[7] = target: G protein-coupled estrogen receptor (Homo sapiens, UniProt Q99527); conditions: cited from earlier work
Sequence of G protein-coupled estrogen receptor (Q99527 whole entry): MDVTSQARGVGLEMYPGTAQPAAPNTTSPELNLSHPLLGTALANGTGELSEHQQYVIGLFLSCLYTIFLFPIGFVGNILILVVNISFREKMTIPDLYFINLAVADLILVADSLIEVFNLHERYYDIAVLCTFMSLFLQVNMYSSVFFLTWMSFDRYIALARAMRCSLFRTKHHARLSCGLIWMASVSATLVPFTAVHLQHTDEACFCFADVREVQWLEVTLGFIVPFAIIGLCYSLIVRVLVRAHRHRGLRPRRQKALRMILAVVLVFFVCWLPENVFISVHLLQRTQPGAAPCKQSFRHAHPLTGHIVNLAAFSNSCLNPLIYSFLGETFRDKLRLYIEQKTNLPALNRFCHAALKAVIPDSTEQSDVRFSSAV

[8] = tested on: healthy volunteers; conditions: amorphous solid dispersion, single doses 500 to 3000 mg, then 3000 mg over six consecutive days; cited from earlier work
[9] = tested on: Db/Db mice fed a high fat diet; assay: Genistein in Db/Db mice fed a high fat diet; assay type: in vivo, mouse; conditions: high fat diet 6 weeks, then oral gavage 50 mg/Kg genistein in corn oil for 47 days
[10] = tested on: patients with bladder cancer; conditions: 300 and 600 mg daily for 21 days; cited from earlier work
[11] = tested on: mice with L-arginine induced acute pancreatitis; conditions: Siriviriyakul et al., cited from earlier work
[12] = tested on: rat model of monocrotaline-induced pulmonary hypertension; conditions: Matori et al.; cited from earlier work
[13] = tested on: rats with cerulein (AEP) or sodium taurocholate (ANP) induced pancreatitis; conditions: Xia et al.; cited from earlier work
[14] = tested on: transthyretin tetramer (TTR); conditions: Green et al.; cited from earlier work
[15] = target: transthyretin tetramer (TTR) (Homo sapiens, UniProt P02766); conditions: Green et al.; cited from earlier work
[16] = tested on: postmenopausal women; conditions: 54 mg per day, cited from earlier work
[17] = log P; assay type: physicochemical
[18] = tested on: children with Sanfillipo syndrome; conditions: 160 mg/kg/day for 12 months, median age 7.2 years; cited from earlier work
[19] = Wang et al.; cited from earlier work
[20] = Intestinal stability, human intestinal S9; assay type: in vitro ADME
Experimental: (§1) The stability of compounds 1 and 2, and the control compound 7-hydroxycoumarin, were measured using human, rat, and mouse intestinal S9 fractions (Xenotech). Test compound working solutions were prepared by diluting 5 μL of 10 mM stock solutions in DMSO with 495 μL AN. S9 solutions were prepared by diluting the obtained S9 solutions to 1.0 mg/mL in 100 mM potassium phosphate buffer at pH 7.4 containing 10 mM D-saccharic acid-1,4-lactone. An Apricot automation workstation was used to add 100 μL/well of S9 solution to all reaction plates (Blank, T0, T5, T15, T30, T45, T60 and NCF60); 2 μL/well of compound working solutions were added to all 96-well reaction plates except the blank (T0, T5, T15, T30, T45, T60, and NCF60); 600 μL/well of stop solution (4° C. ACN containing 200 ng/mL tolbutamide and 200 ng/mL labetalol as internal standards) was added to the T0 reaction plate; all plates were pre-incubated at 37° C. for 10 minutes; a cofactor regenerating system (98 μL/well) was added, excluding the NCF60 plate which instead received 98 μL/well of 100 mM potassium phosphate buffer. All plates were then incubated at 37° C. To terminate reactions, 600 μL/well of stop solution was applied at specific end time points. After sealing and a 10-minute shaking, plates were centrifuged at 4000 rpm and 4° C. for 20 minutes. Concurrently, 300 μL/well of HPLC grade water was loaded onto eight new 96-well bioanalysis plates. Post-centrifugation, 100 μL supernatant from each reaction plate was transferred to its corresponding bioanalysis plate, shaken for 10 minutes, and then subjected to LC-MS/MS analysis (Shimadzu LC-40D LC system coupled to a Sciex Qtrap 6500 Plus mass spectrometer, using both positive and negative ion modes).

[21] = Intestinal stability, rat intestinal S9; assay type: in vitro ADME
Experimental: as §1

[22] = Intestinal stability, mouse intestinal S9; assay type: in vitro ADME; conditions: intestinal S9 fraction
Experimental: as §1

[23] = Conjugate formation in intestinal S9 incubations; assay type: in vitro ADME, human, rat, mouse
Experimental: as §1, with “Concurrently, 300 μL/well of HPLC grade water was loaded onto eight new 96-well bioanalysis plates. Post-centrifugation, 100 μL supernatant from each reaction plate was transferred to its corresponding bioanalysis plate, shaken for 10 minutes, and then subjected to LC-MS/MS analysis (Shimadzu LC-40D LC system coupled to a Sciex Qtrap 6500 Plus mass spectrometer, using both positive and negative ion modes).” left out

[24] = solid form, genistein 71 mg/Kg together with 14.2 mg/Kg inulin
[25] = intestinal S9 fraction, pH 7.4, read-out: intrinsic clearance rate

Compound: O=c1c(-c2ccc(O)cc2)coc2cc(O)cc(O)c12 [Genistein, 5,7-dihydroxy-3-(4-hydroxyphenyl)-4H-chromen-4-one]
reduction of fasting blood glucose [2]: ~30% | AUC(0-t) ([3]; male, SD, rat, in vivo, po, 71 mg/kg, solid form, genistein 71 mg/Kg alone, considerable variability, read-out: mean AUC0-last of dosed compound in plasma): ~500 ng·h/mL | AUC(0-t) ([3]; male, SD, rat, in vivo, po, 71 mg/kg, solid form, genistein 71 mg/Kg together with 14.2 mg/Kg inulin, read-out: mean AUC0-last with addition of inulin): ~300 ng·h/mL | Cmax ([3]; male, SD, rat, in vivo, po, 71 mg/kg, read-out: mean cmax of dosed compound in plasma): ~160 ng/mL | Tmax ([3]; male, SD, rat, in vivo, po, 71 mg/kg, read-out: mean tmax of dosed compound in plasma): ~180 min | half-life ([3]; male, SD, rat, in vivo, po, read-out: mean t1/2 of dosed compound in plasma (converted)): ~120 min | effect of inulin on the peak [3, 24]: slightly reducing | time of peak with addition of inulin [3, 24]: around 5 hours | AUC(0-t) ([4]; solution, 25 mg/Kg nominal, fasted male SD rat, read-out: mean AUC0-last of dosed compound in plasma): ~500 ng·h/mL | Cmax ([4]; solution, 25 mg/Kg nominal, fasted male SD rat, read-out: mean cmax of dosed compound in plasma): ~300 ng/mL | half-life ([4]; solution, 25 mg/Kg nominal, fasted male SD rat, read-out: mean t1/2 of dosed compound in plasma (converted)): ~78 min | Tmax ([4]; solution, 25 mg/Kg nominal, fasted male SD rat, read-out: mean tmax of dosed compound in plasma (converted)): 10 min | markers of oxidative stress [5]: reduced | muscle necrosis [5]: reduced | muscle regeneration [5]: enhanced | serum creatine-kinase levels [5]: reduced | forelimb strength and strength normalized to weight ([5]; five-week old mdx mice, five weeks, daily or 3-times/week): increased | solubility at 24 h ([6]; read-out: Solubility): 0.027 mM | solubility at 24 h ([6]; read-out: Solubility (μg/mL)): 7.29 µg/mL | affinity, agonist of G protein-coupled estrogen receptor [7]: 133 nM | adverse effects [8]: No significant adverse effects were reported, other than instances of diarrhea, headache or nausea at the highest dosages | reduction of HbA1C [9]: ~37% | reduction of fasting blood glucose [9]: ~57% | tolerability [10]: well tolerated, with no to mild side effects | edema, necrosis and cell death induced by L-arginine ([11]; 10 mg/Kg/day and 100 mg/Kg/day): significantly reducing | serum amylase, IL-6 and CRP levels ([11]; 10 mg/Kg/day and 100 mg/Kg/day): significantly reduced | NF-κB and 4-HNE expression [11]: curbing | monocrotaline-induced preexisting PH [12]: reversed | progression of severe PH to right heart failure [12]: prevented | right ventricular ejection fraction [12]: restoring | right ventricular pressure [12]: reducing | necrosis, edema and inflammatory infiltration compared to the experimental models [13]: mitigated | amyloidogenesis of TTR mutations V30M and V122I [14]: inhibits | acid-mediated fibril formation, of that exhibited by TTR alone [15]: < 10% | binding to TTR in plasma over all of the other plasma proteins [15]: highly selective binding | bone mineral density at femoral neck and lumbar spine ([16]; after 36 months): greater increases | mammographic breast density, endometrial thickness, expression of BRCA1 and BRCA2 ([16]; after 36 months): no significant changes | sister chromatid exchange compared to placebo ([16]; after 36 months): reducing | discomfort or adverse events between participants [16]: No differences | logP [17]: 3.04 | adverse effects [18]: No treatment-specific severe adverse effects were reported

Compound: O=c1c(-c2ccc(O)cc2)coc2cc(OP(=O)(O)O)cc(O)c12 [Genistein-7-O-phosphate, genistein 7-O-phosphate, reference compound]
solubility at 24 h ([6]; read-out: Solubility): 3.57 mM | solubility at 24 h ([6]; read-out: Solubility (μg/mL)): 1250 µg/mL | bioavailability [19]: more bioavailable than aglyconic genistein | water solubility [19]: practically water soluble

Compound: O=c1c(-c2ccc(OCOP(=O)(O)O)cc2)coc2cc(OCOP(=O)(O)O)cc(O)c12 [Compound 3, ((5-Hydroxy-4-oxo-3-(4-((phosphonooxy)methoxy)phenyl)-4H-chromen-7-yl)oxy)methyl dihydrogen phosphate]
solubility at 24 h ([6]; read-out: Solubility): 10.2 mM | solubility at 24 h ([6]; read-out: Solubility (μg/mL)): 5000 µg/mL | Percentage remaining at time: 1 hour [1]: 95.1% | Percentage remaining at time: 2 hours [1]: 101% | Percentage remaining at time: 6 hours [1]: 96.1% | Percentage remaining at time: 24 hours [1]: 51.4% | Percentage remaining at time: 0 [1]: 100%

Compound: O=c1c(-c2ccc(OCOP(=O)(O)O)cc2)coc2cc(O)cc(O)c12 [Compound 1, (4-(5,7-Dihydroxy-4-oxo-4H-chromen-3-yl)phenoxy)methyl dihydrogen phosphate]
normalized control factor remaining [20]: 24.9% | half-life at 1 µM ([20]; intestinal S9 fraction, pH 7.4): 28.7 min | microsomal CLint at 1 µM [20, 25]: 48.4 µL/min/mg | normalized control factor remaining [21]: 30.4% | half-life at 1 µM ([21]; intestinal S9 fraction, pH 7.4): 2.6 min | microsomal CLint at 1 µM [21, 25]: 526 µL/min/mg | Cmax ([4]; male, SD, rat, 25 mg/kg): ~15 ng/mL | Tmax ([4]; male, SD, rat, 25 mg/kg): ~8 min | decline of plasma concentration of dosed compound ([4]; rat, 25 mg/kg): very rapid decline in concentration | half-life at 1 µM ([22]; pH 7.4): 29.7 min | microsomal CLint at 1 µM ([22]; pH 7.4, read-out: intrinsic clearance rate): 46.7 µL/min/mg | solubility at 24 h ([6]; read-out: Solubility): 12.5 mM | solubility at 24 h ([6]; read-out: Solubility (μg/mL)): 4770 µg/mL | Percentage remaining at time: 1 hour [1]: 94.4% | Percentage remaining at time: 2 hours [1]: 91.5% | Percentage remaining at time: 6 hours [1]: 83.8% | Percentage remaining at time: 24 hours [1]: 42.1% | Percentage remaining at time: 0 [1]: 100% | formation of glucuronidation, sulfation, and glutathione conjugates [23]: noticeable absence

The remaining lines, values ahead:

Percentage remaining at time: 1 hour [1]: 35.4% | Percentage remaining at time: 2 hours [1]: 23.1% | Percentage remaining at time: 6 hours [1]: 4.2% | Percentage remaining at time: 24 hours [1]: 0% | Percentage remaining at time: 0 [1]: 100%
Compound: COc1ccc2[nH]c([S+]([O-])Cc3ncc(C)c(OC)c3C)nc2c1 (centres unmarked) [Omeprazole, omeprazole, reference compound]

solubility at 24 h ([6]; read-out: Solubility): 0.612 mM | solubility at 24 h ([6]; read-out: Solubility (μg/mL)): 293 µg/mL | Percentage remaining at time: 1 hour [1]: 104% | Percentage remaining at time: 2 hours [1]: 110% | Percentage remaining at time: 6 hours [1]: 114% | Percentage remaining at time: 24 hours [1]: 106% | Percentage remaining at time: 0 [1]: 100%
Compound: CC(C)(CCCOP(=O)(O)O)C(=O)Oc1ccc(-c2coc3cc(O)cc(O)c3c2=O)cc1 [Compound 4, 4-(5,7-Dihydroxy-4-oxo-4H-chromen-3-yl)phenyl 2,2-dimethyl-5-(phosphonooxy)pentanoate]

Source: patent publication US20250170154A1 (GreenStone Biosciences, Inc., priority 2023, published 2025)
